The values that follow come from paper PMC11013038, “Design, Synthesis, and Evaluation of B-(Trifluoromethyl)phenyl Phosphine–Borane Derivatives as Novel Progesterone Receptor Antagonists” (Molecules, 2024).

The structures appear in SMILES notation.

A short description of data set [1]: LogP (1-octanol/water partition coefficient) determined using HPLC. The format is physicochemical. On the procedure: Hydrophobicity is a key determinant of the activity and pharmacokinetics of biologically active compounds, and the octanol–water partition coefficient (P) and logarithm value (LogP) are widely used hydrophobicity parameters. The LogP values of the synthesized compounds were determined using HPLC [45, 46]. Table 1 summarizes the experimentally determined LogP values and calculated values. […] From the viewpoint of the phosphine structure, an increase in the number of carbon atoms increased hydrophobicity in a predictable manner.
The 1-octanol/water partition coefficient P was determined using HPLC based on the OECD Guideline for Testing Chemicals. A COSMOSIL Packed Column 5C18-MS-II (5 μm, 150 mm × 4.6 mm id, Nacalai Tesque, Inc., Kyoto, Japan) was fitted on an HPLC instrument (Multiwavelength Detector, MD-2010 Plus. JASCO, Tokyo, Japan) equipped with a pump (PU-2080, JASCO) and an oven (SSC-2120, Senshu Scientific Co., Ltd., Tokyo, Japan). The injection volume was 20 µL; the mobile phase was methanol–water 75% (v/v); and the flow rate was 1.0 mL/min in all cases. Compounds were detected by measuring the UV absorption at 240 nm. The temperature of the column was kept at 40.0 (± 0.1) °C during the measurement. The measurement was performed in triplicate, and the mean value was calculated. The dead time t0 was measured with thiourea as the unretained compound, and the capacity factor k was calculated using the equation logk = log (tr − t0/t0), where tr represents the retention time of the compound. A calibration graph was determined experimentally using reference compounds (4-methylphenol, 4-chlorophenol, 4-phenylphenol, diphenylether, fluoranthene, and dichlorodiphenyltrichloroethane) with known logP values. The LogP values of phosphine–boranes were calculated based on a calibration graph (LogP = 2.6269 logkw + 3.059, R^2 = 0.9915).

Data set [2] addresses T1, progesterone receptor (PR) (Homo sapiens, UniProt P06401).
T1 construct: alkaline phosphatase assay with the T47D human breast cancer cell line; endogenous in cells; host or cells: T47D
T1 sequence (P06401 1-933): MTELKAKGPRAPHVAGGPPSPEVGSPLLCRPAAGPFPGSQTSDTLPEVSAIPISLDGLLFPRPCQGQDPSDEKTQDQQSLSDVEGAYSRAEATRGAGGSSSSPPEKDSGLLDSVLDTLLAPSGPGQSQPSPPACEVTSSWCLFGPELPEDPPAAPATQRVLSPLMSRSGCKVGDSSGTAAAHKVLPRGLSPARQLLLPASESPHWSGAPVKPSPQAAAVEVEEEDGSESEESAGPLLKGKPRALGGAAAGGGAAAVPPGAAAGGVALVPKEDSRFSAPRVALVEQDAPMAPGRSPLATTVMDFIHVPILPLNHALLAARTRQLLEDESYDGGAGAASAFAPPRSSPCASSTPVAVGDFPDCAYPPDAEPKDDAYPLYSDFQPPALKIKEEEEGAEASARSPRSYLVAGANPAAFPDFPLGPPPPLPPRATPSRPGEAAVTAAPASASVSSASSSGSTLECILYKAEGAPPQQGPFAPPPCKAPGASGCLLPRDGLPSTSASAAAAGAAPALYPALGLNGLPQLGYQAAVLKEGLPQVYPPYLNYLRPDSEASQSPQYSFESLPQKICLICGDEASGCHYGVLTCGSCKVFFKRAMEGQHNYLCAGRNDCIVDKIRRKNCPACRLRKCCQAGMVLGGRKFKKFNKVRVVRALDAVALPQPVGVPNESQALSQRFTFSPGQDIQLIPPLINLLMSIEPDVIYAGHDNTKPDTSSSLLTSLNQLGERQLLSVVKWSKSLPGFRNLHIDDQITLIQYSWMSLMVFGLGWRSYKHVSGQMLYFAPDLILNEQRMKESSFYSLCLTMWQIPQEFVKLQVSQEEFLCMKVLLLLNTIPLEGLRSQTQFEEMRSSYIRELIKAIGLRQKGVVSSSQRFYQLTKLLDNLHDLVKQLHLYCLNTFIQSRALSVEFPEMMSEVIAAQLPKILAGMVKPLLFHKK
In words: T47D alkaline phosphatase assay, PR antagonistic activity in the presence of 1 nM P4. The format is cell-based. Conditions: T47D cells; for IC50: 1.0 nM P4, 48 h, mean ± SD from three independent experiments; for PR antagonistic activity (in words): in the presence of 1 nM P4. Here is the method:
The PR agonistic and antagonistic activities of the synthesized phosphine–borane derivatives were evaluated using an alkaline phosphatase assay with the T47D human breast cancer cell line. […] The basal alkaline phosphatase activity was also not affected by the tested compounds alone. […] The PR antagonistic activities of the compounds were assessed in the presence of 1 nM of P4 (5). We also calculated the molecular volume of each compound to investigate the structure–activity relationship (SAR). Table 2 summarizes the PR antagonistic activity and calculated volumes of the synthesized compounds. […] We investigated the binding affinity of the compounds toward the PR ligand-binding domain (LBD) using a fluorescence polarization assay system. […] We also investigated the activity of compounds 28 and 34 toward the androgen receptor (AR) by means of cell-proliferation promoting/inhibitory activity toward androgen-dependent SC-3 cells. […].
T47D alkaline phosphatase assays were performed as previously described, with minor modifications. Briefly, the human breast cancer cell line T47D (HMS LINCS database Accession Numbers: 50541) was routinely cultivated in RPMI 1640 medium with 10% FBS at 37 °C in a 5% CO2 humidified incubator. The cells were plated in 96-well plates and incubated overnight in a 5% CO2 humidified incubator at 37 °C. The next day, the cells were treated with a fresh medium containing the test compound in the presence of 1 nM of progesterone and further incubated for 48 h. The medium was aspirated, and the cells were fixed with 100 μL of 1.8% formalin–PBS. The fixed cells were washed with PBS, and 100 μL of an assay buffer (1 mg/mL p-nitrophenol phosphate in diethanolamine water solution, pH 9.0) was added. The mixture was incubated at room temperature for 2 h under light-shielded conditions. The absorbance was measured at 405 nm using a DTX 880 Multimode Detector (Beckman Coulter, Brea, CA, USA). All data points were measured in triplicate, and IC50 values were calculated from three independent experiments.

[3] abbreviates: HPLC (OECD guideline), C18 column, methanol–water 75% (v/v), 40 °C, mean of triplicate.
The mark [4] stands for this setting: HPLC, tentative value: hydrophobicity beyond the range of the reference compounds (1.9 < LogP < 6.5).

As usually defined, the chromatographic logP is lipophilicity estimated from chromatographic retention. Lower therefore signals a more hydrophilic compound. The term IC50 denotes the point on the concentration scale where inhibition reaches its midpoint. In data set [1] (setting [3]), `C[P+](C)(C)[BH2-]c1cccc(C(F)(F)F)c1` [Compound 16, B-3-(Trifluoromethyl)phenyl Trimethylphosphine–Borane] showed a chromatographic logP of 3.65. Also, in data set [2], the IC50 was greater than 10000 nM and the “PR antagonistic activity (in words)” value was “only weak potency”.
One may read the melting point as the temperature of the solid-liquid transition. The molecule `C[P+](C)([BH2-]c1cccc(C(F)(F)F)c1)c1ccccc1` [Compound 17, B-(3-Trifluoromethyl)phenyl Dimethyl(phenyl)phosphine–Borane] came in with a melting point of 75 to 75.8 °C. The same molecule showed a chromatographic logP in data set [1] (setting [3]) of 4.54. Also, in data set [2], the 50% inhibitory concentration (IC50) was determined as 1160 ± 600 nM and the “PR antagonistic activity (in words)” value is listed as “potent activities”.
In the case of `CC[P+]([BH2-]c1cccc(C(F)(F)F)c1)(CC)CC` [Compound 18, B-3-(Trifluoromethyl)phenyl Triethylphosphine–Borane], in data set [1] (setting [3]), the chromatographic logP came out at 4.88. Besides, in data set [2], the half-inhibitory concentration (IC50) came out at 3670 ± 3340 nM and the “PR antagonistic activity (in words)” value is “moderate PR antagonistic activity”.
For `CC[P+]([BH2-]c1cccc(C(F)(F)F)c1)(CC)c1ccccc1` [Compound 19, B-3-(Trifluoromethyl)phenyl Diethyl(phenyl)phosphine–Borane], the melting point fell in the range of 40 to 40.5 °C. The molecule also gave a chromatographic logP in data set [1] (setting [3]) of 5.24. In addition, in data set [2], the IC50 was determined as 1120 ± 220 nM and the “PR antagonistic activity (in words)” value is reported as “potent activities”.
In data set [1] (setting [3]), `CC(C)[P+]([BH2-]c1cccc(C(F)(F)F)c1)(C(C)C)C(C)C` [Compound 20, B-3-(Trifluoromethyl)phenyl Triisopropylphosphine–Borane] yielded a chromatographic logP of 5.89. Also, in data set [2], the concentration for half-maximal inhibition (IC50) was 1350 ± 470 nM and the “PR antagonistic activity (in words)” value was “potent activities”.
`CC(C)[P+]([BH2-]c1cccc(C(F)(F)F)c1)(c1ccccc1)C(C)C` [Compound 21, B-3-(Trifluoromethyl)phenyl Diisopropyl(phenyl)phosphine–Borane] displayed a melting point of 118.7 to 119.1 °C. Besides, in data set [1] (setting [3]), the chromatographic logP worked out at 5.93. In addition, in data set [2], the IC50 came to 3350 ± 1490 nM and the “PR antagonistic activity (in words)” value is recorded as “moderate PR antagonistic activity”.
As for `FC(F)(F)c1cccc([BH2-][P+](C2CC2)(C2CC2)C2CC2)c1` [Compound 22, B-3-(Trifluoromethyl)phenyl Tricyclopropylphosphine–Borane], the chromatographic logP in data set [1] (setting [3]) worked out at 5.21. For the same molecule, in data set [2], the concentration for half-maximal inhibition (IC50) was found to be 650 ± 170 nM and the “PR antagonistic activity (in words)” value is “potent activities”.
Take `CCCC[P+]([BH2-]c1cccc(C(F)(F)F)c1)(CCCC)CCCC` [Compound 23, B-3-(Trifluoromethyl)phenyl Tri-n-Butylphosphine–Borane]: the chromatographic logP in data set [1] (setting [4]) amounted to 7.34. Further, in data set [2], the half-inhibitory concentration (IC50) was greater than 10000 nM and the “PR antagonistic activity (in words)” value is “only weak potency”.
In turn, `FC(F)(F)c1cccc([BH2-][P+](C2CCCC2)(C2CCCC2)C2CCCC2)c1` [Compound 24, B-3-(Trifluoromethyl)phenyl Tricyclopentylphosphine–Borane] had a chromatographic logP in data set [1] (setting [4]) of 7.84. In data set [2], the IC50 stood at 6640 ± 870 nM and the “PR antagonistic activity (in words)” value is given as “moderate PR antagonistic activity”.
`FC(F)(F)c1cccc([BH2-][P+](C2CCCCC2)(C2CCCCC2)C2CCCCC2)c1` [Compound 25, B-3-(Trifluoromethyl)phenyl Tricyclohexylphosphine–Borane]: the melting point fell in the range of 100 to 100.5 °C. In data set [1] (setting [4]), the chromatographic logP was found to be 8.69. For the same molecule, in data set [2], the IC50 is greater than 10000 nM and the “PR antagonistic activity (in words)” value is reported as “only weak potency”.
`FC(F)(F)c1cccc([BH2-][PH+](C2CCCCC2)C2CCCCC2)c1` [Compound 26, B-3-(Trifluoromethyl)phenyl Dicyclohexylphosphine–Borane]: the chromatographic logP in data set [1] (setting [4]) is 7.28.
`CN(C)[P+]([BH2-]c1cccc(C(F)(F)F)c1)(N(C)C)N(C)C` [Compound 27, B-3-(Trifluoromethyl)phenyl Tris(dimethylamino)phosphine–Borane] came in with a chromatographic logP in data set [1] (setting [3]) of 5.39. In addition, in data set [2], the concentration for half-maximal inhibition (IC50) was determined as 1200 ± 630 nM and the “PR antagonistic activity (in words)” value is reported as “potent activities”.
The molecule `C[P+](C)([BH2-]c1ccc(C(F)(F)F)cc1)c1ccccc1` [Compound 29, B-4-(Trifluoromethyl)phenyl Dimethyl(phenyl)phosphine–Borane] displayed a melting point of 78 to 78.3 °C. The chromatographic logP in data set [1] (setting [3]) came out at 4.65. Besides, the IC50 in data set [2] is 1610 ± 870 nM.
The molecule `CC[P+]([BH2-]c1ccc(C(F)(F)F)cc1)(CC)CC` [Compound 30, B-4-(Trifluoromethyl)phenyl Triethylphosphine–Borane] yielded a chromatographic logP in data set [1] (setting [3]) of 4.99. Besides, the IC50 in data set [2] stood at 1760 ± 1440 nM.
In turn, `CC[P+]([BH2-]c1ccc(C(F)(F)F)cc1)(CC)c1ccccc1` [Compound 31, B-4-(Trifluoromethyl)phenyl Diethyl(phenyl)phosphine–Borane] displayed a melting point of 62 to 62.3 °C. The same molecule came in with a chromatographic logP in data set [1] (setting [3]) of 5.41. Further, in data set [2], the IC50 amounted to 1780 ± 970 nM.
Taken in the same sequence, the figures for `CC(C)[P+]([BH2-]c1ccc(C(F)(F)F)cc1)(C(C)C)C(C)C` [Compound 32, B-4-(Trifluoromethyl)phenyl Triisopropylphosphine–Borane] were 59 to 59.4 °C, 6.06 and 1510 ± 530 nM.
`CC(C)[P+]([BH2-]c1ccc(C(F)(F)F)cc1)(c1ccccc1)C(C)C` [Compound 33, B-4-(Trifluoromethyl)phenyl Diisopropyl(phenyl)phosphine–Borane] showed a melting point of 94.8 to 95.2 °C. The chromatographic logP in data set [1] (setting [3]) was 6.15. For the same molecule, the IC50 in data set [2] came out at 2010 ± 580 nM.
Turning to `FC(F)(F)c1ccc([BH2-][PH+](C2CCCCC2)C2CCCCC2)cc1` [Compound 38, B-4-(Trifluoromethyl)phenyl Dicyclohexylphosphine–Borane], the melting point is 52.7 to 53.7 °C. In data set [1] (setting [4]), the chromatographic logP worked out at 7.34.
